BindingDB's records for doi:10.1016/j.bmcl.2019.02.028 (Indiana University School of Medicine, 2019)

Target: Chaperonin GroEL (Escherichia coli (strain K12), UniProt P0A6F5)
Assay: Binding affinity to Escherichia coli GroEL expressed in Escherichia coliDH5alpha by ITC assay

Sequence of Chaperonin GroEL (P0A6F5 2-548 limits assumed): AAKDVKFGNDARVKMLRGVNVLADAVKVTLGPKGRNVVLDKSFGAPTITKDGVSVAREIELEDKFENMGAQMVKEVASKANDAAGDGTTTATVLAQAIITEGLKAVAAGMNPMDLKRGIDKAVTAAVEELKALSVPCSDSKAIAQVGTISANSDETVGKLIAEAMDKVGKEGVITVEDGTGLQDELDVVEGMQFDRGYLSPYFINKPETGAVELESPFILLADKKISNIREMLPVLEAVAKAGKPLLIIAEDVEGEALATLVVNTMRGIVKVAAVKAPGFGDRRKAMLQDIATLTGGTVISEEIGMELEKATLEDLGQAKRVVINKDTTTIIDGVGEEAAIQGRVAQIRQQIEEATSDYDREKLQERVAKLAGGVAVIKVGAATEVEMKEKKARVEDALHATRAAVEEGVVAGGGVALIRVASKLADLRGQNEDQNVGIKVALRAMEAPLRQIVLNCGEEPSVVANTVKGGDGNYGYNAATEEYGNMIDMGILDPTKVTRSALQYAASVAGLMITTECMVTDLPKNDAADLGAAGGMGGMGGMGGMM

- Kd: 9.8 µM
SMILES: CC1=CCC(C(=O)/N=C2\CC=C(S(=O)(=O)O)c3cc(S(=O)(=O)O)cc(S(=O)(=O)O)c32)=C/C1=N/C(=O)C1=CC=C/C(=N\C(=O)/N=C2\C=CC=C(C(=O)/N=C3/CC(C(=O)/N=C4\CC=C(S(=O)(=O)O)c5cc(S(=O)(=O)O)cc(S(=O)(=O)O)c54)=CC=C3C)C2)C1
